In patent US20250082633A1, “COMPOUNDS AND METHODS FOR MODULATING SPLICING” (REMIX THERAPEUTICS INC., priority 2021, published 2025):

Tests used:
[1] = test system: HiBiT-tagged MYB protein in K562 cells; experiment: HiBit protein abundance assay, MYB; format: cell-based, human; conditions: K562 HiBiT-modified cells, 24 hours, luminescence
Procedure: (§1) Compounds described herein were used to screen for effects on quantitative protein abundance using a HiBit assay system (Promega). Quantitative protein abundance was determined by measuring the protein levels of HiBit-tagged protein targets expressed in cell culture via luminescence using the Nano-Glo HiBiT Lytic Detection System, which uses a split complementation assay format to reconstitute NanoBiT enzyme to generate a luminescent signal. A protein abundance assay was developed such that endogenous protein targets could be modified with the HiBiT peptide tag and their abundance could be assessed after compound treatment. Briefly, K562 cell lines containing a HiBiT-modification were treated with various compounds described herein (e.g., compounds of Formulas (I), (II), or (III)). After treatment for 24 hours, the protein abundance of a specific target was determined by measuring luminescence. • Promega Nano-Glo HiBiT Lytic Detection System (cat #N3030) • Corning 384-well TC-treated microplates (cat #3570) • Synthego Engineered Cells Knock-In Clones [table] Cells were maintained in IMDM with 10% FBS. Before the assay, cells were diluted with phenolphthalein-free growth media (IMDM+1% FBS media) and were seeded in a 384-well plate at a density of 10000 cells/well (for each cell line listed in Table 6). Each compound was prepared as a 10-point 3-fold serial dilution in DMSO with the top dose at a final concentration of 10 μM in the well. Unmodified K562 cells were added at the previously specified density with DMSO to serve as an assay baseline and positive control (PC) and DMSO only with the respective modified cell lines was added to the negative control (NC) columns. Final DMSO concentration was kept at or below 0.25%. Treated cell plates were placed in an incubator at 37° C. with 5% CO2 for 24 hours. After 24 hours, 25 μL of Complete HiBit Lytic reagent was added to each well at room temperature (e.g. one plate requiring 10 mL Lytic Buffer, 100 μL LgBiT Protein, 200 μL Lytic Substrate), shaken for 5 minutes at 600 RPM, then left to sit for 10 minutes for signal to stabilize before reading on a Spark Cyto plate reader (Tecan) with a 500 ms measurement time. To determine compound effects on protein abundance of each target in Table 6, the percent response for each respective cell line was calculated at each compound concentration as follows: For the normalized response at each concentration, a four-parameter logistical regression was fit to the data and the response was interpolated at the 50% value to determine a concentration for protein abundance at 50% (IC50) the untreated control.

[2] = test system: Target C; experiment: HiBit protein abundance assay, Target C; format: cell-based; conditions: Homo sapiens; K562 HiBiT-modified cells, 24 hours, luminescence
Procedure: as §1, with “Clones” for “Clones [table]”

`Cc1cn2nc(-c3ccc4nn(C5CCNCC5)cc4n3)cc(C)c2n1` [Compound 138, 2,8-dimethyl-6-[2-(4-piperidyl)pyrazolo[4,3-b]pyridin-5-yl]imidazo[1,2-b]pyridazine] gave an IC50 [1] of 0.1 to 1 µM and an IC50 [2] of 0.1 to 1 µM.

In the case of `Cc1cn2nc(-c3cc4cn(C5CCNCC5)nc4c(O)n3)cc(C)c2n1` [Compound 139, 5-(2,8-dimethylimidazo[1,2-b]pyridazin-6-yl)-2-(4-piperidyl)-6H-pyrazolo[3,4-c]pyridin-7-one], the IC50 [1] is reported as 0.1 to 1 µM and the IC50 [2] is reported as 0.1 to 1 µM.

For `COc1cc(-c2cc3cn(C)nc3cc2O)nc2cn(C3CCNCC3)nc12` [Compound 140, 5-[7-methoxy-2-(4-piperidyl)pyrazolo[4,3-b]pyridin-5-yl]-2-methyl-indazol-6-ol], the IC50 [1] was 1 to 10 µM and the IC50 [2] was 1 to 10 µM.

`Cn1cc2cc(-c3cc(Cl)c4nn(C5CCNCC5)cc4n3)c(O)cc2n1` [Compound 141] was tested, and the IC50 [1] was greater than 10 µM and the IC50 [2] was greater than 10 µM.

`COC1=C(C)C2N=C(C)OC2C=C1c1cc(F)c2nn(C3CCNCC3)cc2n1` (stereo not drawn) [Compound 144] showed an IC50 [1] of 1 to 10 µM and an IC50 [2] of 1 to 10 µM.

`Cn1cc2cc(-c3cc(F)c4nn(C5CCNCC5)cc4c3)ccc2n1` [Compound 145, 7-fluoro-5-(2-methylindazol-5-yl)-2-(4-piperidyl)indazole] was tested, and the IC50 [1] was 0.1 to 1 µM and the IC50 [2] was 0.1 to 1 µM.

For `CCN1CCC(n2cc3cc(-c4cc(C)c5nc(C)cn5n4)cc(F)c3n2)CC1` [Compound 146, 6-[2-(1-ethyl-4-piperidyl)-7-fluoro-indazol-5-yl]-2,8-dimethyl-imidazo[1,2-b]pyridazine], the IC50 [1] was 0.1 to 1 µM and the IC50 [2] was less than 0.1 µM.

`Cc1cn2nc(-c3cc4cn(C5CCNCC5)nc4cn3)cc(C)c2n1` [Compound 147, 2,8-dimethyl-6-[2-(4-piperidyl)pyrazolo[3,4-c]pyridin-5-yl]imidazo[1,2-b]pyridazine] showed an IC50 [1] of 0.1 to 1 µM and an IC50 [2] of 0.1 to 1 µM.

`Cn1cc2cc(-c3ccc4cn(C5CCNCC5)nc4c3)cc(F)c2n1` [Compound 148, 7-fluoro-2-methyl-5-[2-(4-piperidyl)indazol-6-yl]indazole] gave an IC50 [1] greater than 10 µM and an IC50 [2] greater than 10 µM.

For `Cc1cn2nc(-c3cc(F)c4nn(C5CCN(CC6CC6)CC5)cc4c3)cc(C)c2n1` [Compound 149, 6-[2-[1-(cyclopropylmethyl)-4-piperidyl]-7-fluoro-indazol-5-yl]-2,8-dimethyl-imidazo[1,2-b]pyridazine], the IC50 [1] was 0.1 to 1 µM and the IC50 [2] was less than 0.1 µM.

Compound `Cc1cn2nc(-c3cc(F)c4nn(C5CCN(C)CC5)cc4c3)cc(C)c2n1` [Compound 150, 6-[7-fluoro-2-(1-methyl-4-piperidyl)indazol-5-yl]-2,8-dimethyl-imidazo[1,2-b]pyridazine] has an IC50 [1] of 0.1 to 1 µM and an IC50 [2] of less than 0.1 µM.

`Cc1cn2nc(-c3cc(F)c4nn(C5CCN(C6CCC6)CC5)cc4c3)cc(C)c2n1` [Compound 151, 6-[2-(1-cyclobutyl-4-piperidyl)-7-fluoro-indazol-5-yl]-2,8-dimethyl-imidazo [1,2-b] pyridazine] gave an IC50 [1] of less than 0.1 µM and an IC50 [2] of less than 0.1 µM.

For `Cc1cn2nc(-c3cc(F)c4nn(C5CCN(CCF)CC5)cc4c3)cc(C)c2n1` [Compound 152], the IC50 [1] was 0.1 to 1 µM and the IC50 [2] was 0.1 to 1 µM.

`Cc1cn2nc(-c3cc4cn(C5CCNCC5)nc4c(OCc4ccccc4)n3)cc(C)c2n1` [Compound 153, 6-[7-benzyloxy-2-(4-piperidyl)pyrazolo [3,4-c]pyridin-5-yl]-2,8-dimethyl-imidazo[1,2-b]pyridazine] showed an IC50 [1] of 1 to 10 µM and an IC50 [2] of 1 to 10 µM.

Work on `Cc1cn2nc(-c3cc4cn(C5CCNCC5)nc4cc3O)cc(C)c2n1` [Compound 154, 5-(2,8-dimethylimidazo[1,2-b]pyridazin-6-yl)-2-(piperidin-4-yl)-2H-indazol-6-ol] yielded an IC50 [1] of 0.1 to 1 µM and an IC50 [2] of less than 0.1 µM.

Work on `COc1cc(-c2cc(C)c3nc(C)cn3n2)cc2cn(C3CCNCC3)nc12` [Compound 155, 6-(7-methoxy-2-(piperidin-4-yl)-2H-indazol-5-yl)-2,8-dimethylimidazo [1,2-b]pyridazine] yielded an IC50 [1] of 0.1 to 1 µM and an IC50 [2] of 0.1 to 1 µM.

With `Cc1cn2nc(-c3cc(O)c4nn(C5CCNCC5)cc4c3)cc(C)c2n1` [Compound 156, 5-(2,8-dimethylimidazo[1,2-b]pyridazin-6-yl)-2-(piperidin-4-yl)-2H-indazol-7-ol] the IC50 [1] was 1 to 10 µM and the IC50 [2] was 1 to 10 µM.

With `Cc1ccc2nc(-c3cc(F)c4nn(C5CCNCC5)cc4c3)ccc2n1` [Compound 157, 2-[7-fluoro-2-(4-piperidyl)indazol-5-yl]-6-methyl-1,5-naphthyridine] the IC50 [1] was 1 to 10 µM and the IC50 [2] was greater than 10 µM.

`Fc1cc(-c2ccc3ccncc3c2)cc2cn(C3CCNCC3)nc12` [Compound 158, 7-[7-fluoro-2-(4-piperidyl)indazol-5-yl]isoquinoline] gave an IC50 [1] of 1 to 10 µM and an IC50 [2] of 1 to 10 µM.

Compound `COc1cc2nn(C3CCNCC3)cc2cc1-c1cc(C)c2nc(C)cn2n1` [Compound 159, 6-(6-methoxy-2-(piperidin-4-yl)-2H-indazol-5-yl)-2,8-dimethylimidazo[1,2-b]pyridazine] has an IC50 [1] greater than 10 µM and an IC50 [2] greater than 10 µM.

Work on `Cc1cn2nc(-c3cc(F)c4nn(C5CCN(CCO)CC5)cc4c3)cc(C)c2n1` [Compound 160, 2-[4-[5-(2,8-dimethylimidazo[1,2-b]pyridazin-6-yl)-7-fluoro-indazol-2-yl]-1-piperidyl]ethanol] yielded an IC50 [1] of 0.1 to 1 µM and an IC50 [2] of less than 0.1 µM.

With `Fc1cc(-c2ccc3cnccc3c2)cc2cn(C3CCNCC3)nc12` [Compound 161, 6-[7-fluoro-2-(4-piperidyl)indazol-5-yl]isoquinoline] the IC50 [1] was 1 to 10 µM and the IC50 [2] was 1 to 10 µM.

Compound `Fc1cc(-c2ccc3ncccc3c2)cc2cn(C3CCNCC3)nc12` [Compound 162, 6-[7-fluoro-2-(4-piperidyl)indazol-5-yl]quinoline] has an IC50 [1] of 1 to 10 µM and an IC50 [2] of 1 to 10 µM.

`Cc1ccc2cc(-c3cc(F)c4nn(C5CCNCC5)cc4c3)ccc2n1` [Compound 163, 6-[7-fluoro-2-(4-piperidyl)indazol-5-yl]-2-methyl-quinoline] was tested, and the IC50 [1] was 1 to 10 µM and the IC50 [2] was 1 to 10 µM.

Compound `Cc1ncc2cc(-c3cc(F)c4nn(C5CCNCC5)cc4c3)ccc2n1` [Compound 165, 6-[7-fluoro-2-(4-piperidyl)indazol-5-yl]-2-methyl-quinazoline] has an IC50 [1] greater than 10 µM and an IC50 [2] greater than 10 µM.

In the case of `Cc1cn2nc(-c3cc(F)c4nn(C5CCNCC5F)cc4c3)cc(C)c2n1` (stereo not drawn) [Compound 166, 6-[7-fluoro-2-(3-fluoro-4-piperidyl)indazol-5-yl]-2,8-dimethyl-imidazo [1,2-b]pyridazine], the IC50 [1] is reported as 0.1 to 1 µM and the IC50 [2] is reported as 0.1 to 1 µM.

With `Cc1cn2nc(-c3cc(F)c4nn([C@H]5CCNC[C@@H]5F)cc4c3)cc(C)c2n1` [Compound 167, 6-(7-fluoro-2-((3S,4S)-3-fluoropiperidin-4-yl)-2H-indazol-5-yl)-2,8-dimethylimidazo[1,2-b]pyridazine] the IC50 [1] was 1 to 10 µM and the IC50 [2] was 0.1 to 1 µM.
